Data taken from PubChem BioAssay (NCI).
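A five-concentration, 48-hour dose response in 96-well plates underlies each endpoint, interpolated linearly between surrounding concentrations. GI50: concentration for 50% inhibition of growth. Definition used: TGI = concentration required for complete inhibition of growth.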

Assays:
Assay in all cases: NCI-60 cell line screen, 48 h
OVCAR-4 ovarian = test system: OVCAR-4 ovarian
LOX IMVI melanoma = test system: LOX IMVI melanoma
SK-MEL-5 melanoma = test system: SK-MEL-5 melanoma
A498 renal = test system: A498 renal
K-562 leukemia = test system: K-562 leukemia
IGROV1 ovarian = test system: IGROV1 ovarian
OVCAR-8 ovarian = test system: OVCAR-8 ovarian
HCT-116 colon = test system: HCT-116 colon
A549 NSCLC = test system: A549 NSCLC
SF-295 CNS = test system: SF-295 CNS

## COc1ccc(C(=O)Cn2c(C(=O)c3ccc(Cl)cc3)nc(-c3ccccc3)c2-c2ccccc2)cc1
OVCAR-4 ovarian
  GI50: 94.2 µM
  TGI: > 100 µM
LOX IMVI melanoma
  GI50: > 100 µM
  TGI: > 100 µM
SK-MEL-5 melanoma
  GI50: > 100 µM
  TGI: > 100 µM
A498 renal
  GI50: 34.9 µM
  TGI: > 100 µM
K-562 leukemia
  GI50: > 100 µM
  TGI: > 100 µM
IGROV1 ovarian
  GI50: 67.1 µM
  TGI: > 100 µM
OVCAR-8 ovarian
  GI50: > 100 µM
  TGI: > 100 µM
HCT-116 colon
  GI50: > 100 µM
  TGI: > 100 µM
A549 NSCLC
  GI50: 60 µM
  TGI: > 100 µM
SF-295 CNS
  GI50: 91 µM
  TGI: > 100 µM

## CN(Cc1cnc2nc(N)nc(N)c2n1)c1c(Cl)cc(C(=O)NC(CCC(=O)O)C(=O)O)cc1Cl (stereo not drawn)
OVCAR-4 ovarian
  TGI: > 100 µM
LOX IMVI melanoma
  GI50: < 0.01 µM
  TGI: > 100 µM
SK-MEL-5 melanoma
  GI50: 0.0483 µM
  TGI: > 100 µM
A498 renal
  GI50: 0.0994 µM
  TGI: > 100 µM
K-562 leukemia
  GI50: < 0.01 µM
  TGI: > 100 µM
IGROV1 ovarian
  GI50: < 0.01 µM
  TGI: > 100 µM
OVCAR-8 ovarian
  GI50: < 0.01 µM
  TGI: > 100 µM
HCT-116 colon
  GI50: < 0.01 µM
  TGI: > 100 µM
A549 NSCLC
  GI50: < 0.0116 µM
  TGI: > 100 µM
SF-295 CNS
  GI50: 0.0156 µM

## COC1CCC(OC)C(c2nc3sccn3c2/C=N/N=C(N)N)C1 (stereo not drawn)
OVCAR-4 ovarian
  GI50: 43.5 µM
  TGI: > 100 µM
LOX IMVI melanoma
  GI50: 28.5 µM
  TGI: 67.4 µM
SK-MEL-5 melanoma
  GI50: 20.2 µM
  TGI: 54.3 µM
A498 renal
  GI50: 10.9 µM
  TGI: 41.5 µM
K-562 leukemia
  GI50: 35.4 µM
  TGI: > 63.3 µM
IGROV1 ovarian
  GI50: 50 µM
  TGI: > 100 µM
OVCAR-8 ovarian
  GI50: 22.1 µM
  TGI: 55.6 µM
HCT-116 colon
  GI50: 4.9 µM
  TGI: 37.7 µM
A549 NSCLC
  GI50: 47 µM
  TGI: > 100 µM
SF-295 CNS
  GI50: 16.5 µM
  TGI: 34.1 µM

## O=C(Nc1ccccc1)N1C(c2ccccc2)=N[C@@H](c2ccccc2)[C@@H]1c1ccccc1
OVCAR-4 ovarian
  TGI: 44.6 µM
LOX IMVI melanoma
  TGI: 28.2 µM
SK-MEL-5 melanoma
  TGI: 26.8 µM
A498 renal
  TGI: 35.8 µM
K-562 leukemia
  TGI: 50.9 µM
IGROV1 ovarian
  TGI: 53.4 µM
OVCAR-8 ovarian
  TGI: 45.6 µM
HCT-116 colon
  TGI: 36.3 µM
A549 NSCLC
  TGI: 52 µM
SF-295 CNS
  TGI: 62.7 µM

## O=C(O)CCN1C(=S)CSC1=S
OVCAR-4 ovarian
  TGI: > 100 µM
LOX IMVI melanoma
  TGI: > 100 µM
SK-MEL-5 melanoma
  TGI: > 100 µM
A498 renal
  TGI: > 100 µM
K-562 leukemia
  TGI: > 100 µM
IGROV1 ovarian
  TGI: > 100 µM
OVCAR-8 ovarian
  TGI: > 100 µM
HCT-116 colon
  TGI: > 100 µM
A549 NSCLC
  TGI: > 100 µM
SF-295 CNS
  TGI: > 100 µM

## COc1c(OC2OC(C)C(O)C(O)C2O)c(OC)c2oc(-c3ccc(O)cc3)cc(=O)c2c1O (stereo not drawn)
OVCAR-4 ovarian
  GI50: 29.7 µM
  TGI: > 100 µM
LOX IMVI melanoma
  GI50: 27.9 µM
  TGI: > 100 µM
SK-MEL-5 melanoma
  GI50: 35.4 µM
  TGI: > 100 µM
A498 renal
  GI50: 35.4 µM
  TGI: > 100 µM
K-562 leukemia
  GI50: 26.2 µM
  TGI: > 100 µM
IGROV1 ovarian
  GI50: 18.1 µM
  TGI: 92.2 µM
OVCAR-8 ovarian
  GI50: 28 µM
  TGI: > 100 µM
HCT-116 colon
  GI50: 32.4 µM
  TGI: > 100 µM
A549 NSCLC
  GI50: 32.3 µM
  TGI: > 100 µM
SF-295 CNS
  GI50: 36.4 µM
  TGI: > 100 µM

## COc1ccc(CN2c3ccccc3Sc3ccccc32)cc1O
OVCAR-4 ovarian
  GI50: 0.726 µM
  TGI: 19.3 µM
LOX IMVI melanoma
  GI50: 0.71 µM
  TGI: 18.8 µM
SK-MEL-5 melanoma
  GI50: 0.438 µM
  TGI: 11.3 µM
A498 renal
  GI50: 2.71 µM
  TGI: 19 µM
K-562 leukemia
  GI50: 0.365 µM
  TGI: 26.6 µM
IGROV1 ovarian
  GI50: 1.93 µM
  TGI: 21.3 µM
OVCAR-8 ovarian
  GI50: 0.508 µM
  TGI: 20.3 µM
HCT-116 colon
  GI50: 0.386 µM
  TGI: 13.1 µM
A549 NSCLC
  GI50: 0.471 µM
  TGI: 16.7 µM
SF-295 CNS
  GI50: 0.225 µM
  TGI: 0.646 µM

## O=C(NNC(=O)c1ccncc1)C(=O)Nc1cc(Cl)c(Cl)cc1Cl
OVCAR-4 ovarian
  TGI: > 100 µM
LOX IMVI melanoma
  TGI: > 100 µM
SK-MEL-5 melanoma
  TGI: > 100 µM
A498 renal
  TGI: > 100 µM
K-562 leukemia
  TGI: > 100 µM
IGROV1 ovarian
  TGI: > 100 µM
OVCAR-8 ovarian
  TGI: > 100 µM
HCT-116 colon
  TGI: > 100 µM
A549 NSCLC
  TGI: > 100 µM
SF-295 CNS
  TGI: > 100 µM

## CSCc1ncc(-c2ccc(C(F)(F)F)cc2)c(NC2CCCCCC2)n1
OVCAR-4 ovarian
  GI50: > 10 µM
  TGI: > 10 µM
LOX IMVI melanoma
  GI50: > 10 µM
  TGI: > 10 µM
SK-MEL-5 melanoma
  GI50: > 10 µM
  TGI: > 10 µM
A498 renal
  GI50: > 10 µM
  TGI: > 10 µM
K-562 leukemia
  GI50: > 10 µM
  TGI: > 10 µM
IGROV1 ovarian
  GI50: > 10 µM
  TGI: > 10 µM
OVCAR-8 ovarian
  GI50: > 10 µM
  TGI: > 10 µM
HCT-116 colon
  GI50: > 10 µM
  TGI: > 10 µM
A549 NSCLC
  GI50: > 10 µM
  TGI: > 10 µM
SF-295 CNS
  GI50: > 10 µM
  TGI: > 10 µM

## N#C/C(=C/C=C/c1cccc(Cl)c1)S(=O)c1ccccc1 (stereo not drawn)
OVCAR-4 ovarian
  GI50: 0.266 µM
  TGI: 1.16 µM
LOX IMVI melanoma
  GI50: 0.175 µM
  TGI: 0.343 µM
SK-MEL-5 melanoma
  GI50: 1.79 µM
  TGI: 3.61 µM
A498 renal
  GI50: 1.8 µM
  TGI: 3.53 µM
K-562 leukemia
  GI50: 0.301 µM
  TGI: 13.2 µM
IGROV1 ovarian
  GI50: 0.399 µM
  TGI: 1.71 µM
OVCAR-8 ovarian
  GI50: 0.256 µM
  TGI: 0.629 µM
HCT-116 colon
  GI50: 0.241 µM
  TGI: 0.642 µM
A549 NSCLC
  GI50: 1.21 µM
  TGI: 3.12 µM
SF-295 CNS
  GI50: 1.3 µM
  TGI: 2.88 µM

## O=C(O)C12C=CC(C1)c1ccccc12 (stereo not drawn)
OVCAR-4 ovarian
  TGI: > 100 µM
LOX IMVI melanoma
  TGI: > 100 µM
SK-MEL-5 melanoma
  TGI: > 100 µM
A498 renal
  TGI: > 100 µM
K-562 leukemia
  TGI: > 100 µM
IGROV1 ovarian
  TGI: > 100 µM
OVCAR-8 ovarian
  TGI: > 100 µM
HCT-116 colon
  TGI: > 100 µM
A549 NSCLC
  TGI: > 100 µM
SF-295 CNS
  TGI: > 100 µM

## CCOC(=O)/C=C/c1ccc([N+](=O)[O-])o1
OVCAR-4 ovarian
  GI50: 4.93 µM
  TGI: 20.4 µM
LOX IMVI melanoma
  GI50: 1.55 µM
  TGI: 3.71 µM
SK-MEL-5 melanoma
  GI50: 3.81 µM
  TGI: 15.2 µM
A498 renal
  GI50: 21 µM
  TGI: 48.8 µM
K-562 leukemia
  GI50: 2.97 µM
  TGI: 12.9 µM
IGROV1 ovarian
  GI50: 10.9 µM
  TGI: 24.8 µM
OVCAR-8 ovarian
  GI50: 2.91 µM
  TGI: 12.3 µM
HCT-116 colon
  GI50: 1.62 µM
  TGI: 5.62 µM
A549 NSCLC
  GI50: 25.3 µM
  TGI: > 100 µM
SF-295 CNS
  GI50: 19.7 µM
  TGI: 48.2 µM

## COc1ccc2c(c1)[n+](=O)c(/C=C/C(=O)c1cc(OC)c(OC)c(OC)c1)c(C)n2[O-]
OVCAR-4 ovarian
  GI50: 9.35 µM
  TGI: > 100 µM
LOX IMVI melanoma
  GI50: 3.95 µM
  TGI: 28.6 µM
SK-MEL-5 melanoma
  GI50: 12.6 µM
  TGI: 34.3 µM
A498 renal
  GI50: 20.5 µM
  TGI: 54.2 µM
K-562 leukemia
  GI50: 2.59 µM
  TGI: > 100 µM
IGROV1 ovarian
  GI50: 18.2 µM
  TGI: > 100 µM
OVCAR-8 ovarian
  GI50: 5.3 µM
  TGI: > 100 µM
HCT-116 colon
  GI50: 3.23 µM
  TGI: 14.2 µM
A549 NSCLC
  GI50: 21.5 µM
  TGI: > 100 µM
SF-295 CNS
  GI50: 44.8 µM
  TGI: > 100 µM

## COc1ccc(-c2cn3ccnc3c(-c3ccc(Cl)cc3)n2)cc1
OVCAR-4 ovarian
  GI50: 5.61 µM
  TGI: > 100 µM
LOX IMVI melanoma
  GI50: 7.95 µM
  TGI: > 100 µM
SK-MEL-5 melanoma
  GI50: 4.06 µM
  TGI: 21.1 µM
A498 renal
  GI50: 2.31 µM
  TGI: 9.87 µM
K-562 leukemia
  GI50: 4.01 µM
  TGI: > 100 µM
IGROV1 ovarian
  GI50: 7.46 µM
  TGI: > 100 µM
OVCAR-8 ovarian
  GI50: 15 µM
  TGI: > 100 µM
HCT-116 colon
  GI50: > 100 µM
  TGI: > 100 µM
A549 NSCLC
  GI50: 7.49 µM
  TGI: 99.3 µM
SF-295 CNS
  GI50: 23.1 µM
  TGI: 85.3 µM
